{"source": "patent US5767096A", "about": "“Bromotiacumicin compounds” (Abbott Laboratories, priority 1996, dated 1998)", "assay_type_in_all_cases": "cell-based", "key": {"[1]": {"test_system": "Enterococcus faecium ATCC 8043", "assay": "In vitro antibiotic activity (MIC), agar dilution, brain heart infusion agar", "details": "~10^4 organisms per spot, 37° C., ~20 hours", "experimental": "(§1) Optical rotations were measured on a Perkin-Elmer Model 241 polarimeter in a 10 cm cell. Fast atom bombardment mass spectra were measured on a Kratos MS-50 mass spectrometer. Ultraviolet spectra were recorded on a Perkin-Elmer Lambda 3B UV-visible spectrophotometer and infrared spectra on a Nicolet model 60SX FT-IR attached to a Nicolet computer. NMR spectra were acquired on either a General Electric GN500 or GN300 spectrometer. […] Rf values reported were acquired on Analtech TLC plates developed with chloroform:methanol (9:1, v:v) and were visualized using ceric sulfate spray reagent. Melting points were determined on a Hoover Unimelt and are reported uncorrected. Minimal inhibitory concentrations were determined by twofold agar dilution. Brain heart infusion agar was used for aerobes and Wilkins-Chalgren agar for anaerobes.\n(§2) For primary screening of compounds of the invention against selected aerobic microorganisms, minimal inhibitory concentrations (MICs) were determined by the following agar dilution method: Series of two-fold dilutions of the test compounds were added to brain heart infusion agar. The agar plates were inoculated with approximately 10^4 organisms per spot of each of the organisms to be tested. These inoculated agar plates were then incubated at 37° C. for approximately 20 hours. The MICs were determined as the minimal concentration of test compound (in […]) that inhibited visible growth."}, "Escherichia coli JUHL": {"test_system": "Escherichia coli JUHL", "assay": "In vitro antibiotic activity (MIC), agar dilution, brain heart infusion agar", "details": "~10^4 organisms per spot, 37° C., ~20 hours", "experimental": "as §1, §2"}, "[2]": {"test_system": "Staphylococcus aureus ATCC 6538P", "assay": "In vitro antibiotic activity (MIC), agar dilution, brain heart infusion agar", "details": "~10^4 organisms per spot, 37° C., ~20 hours", "experimental": "as §1, §2"}, "[3]": {"test_system": "Staphylococcus epidermidis 3519", "assay": "In vitro antibiotic activity (MIC), agar dilution, brain heart infusion agar", "details": "~10^4 organisms per spot, 37° C., ~20 hours", "experimental": "as §1, §2"}, "[4]": {"test_system": "Streptococcus pyogenes EES61", "assay": "In vitro antibiotic activity (MIC), agar dilution, brain heart infusion agar", "details": "~10^4 organisms per spot, 37° C., ~20 hours", "experimental": "as §1, §2"}, "[5]": {"test_system": "Clostridium difficile 2532", "assay": "In vitro antibiotic activity (MIC) against anaerobes, agar dilution, Wilkins-Chalgren agar", "details": "anaerobe, ~10^5 organisms per spot, 37° C., ~48 hours", "experimental": "as §1\nas §2, with “anaerobic bacteria such as Clostridium,” for “selected aerobic microorganisms,”, “Wilkins-Chalgren” for “brain heart infusion”, “10^5” for “10^4”, “The” for “These”, “48” for “20”"}, "[6]": {"test_system": "Clostridium difficile ATCC 17857", "assay": "In vitro antibiotic activity (MIC) against anaerobes, agar dilution, Wilkins-Chalgren agar", "details": "anaerobe, ~10^5 organisms per spot, 37° C., ~48 hours", "experimental": "as §1\nas §2, with “anaerobic bacteria such as Clostridium,” for “selected aerobic microorganisms,”, “Wilkins-Chalgren” for “brain heart infusion”, “10^5” for “10^4”, “The” for “These”, “48” for “20”"}, "[7]": {"test_system": "Clostridium difficile ATCC 9689", "assay": "In vitro antibiotic activity (MIC) against anaerobes, agar dilution, Wilkins-Chalgren agar", "details": "anaerobe, ~10^5 organisms per spot, 37° C., ~48 hours", "experimental": "as §1\nas §2, with “anaerobic bacteria such as Clostridium,” for “selected aerobic microorganisms,”, “Wilkins-Chalgren” for “brain heart infusion”, “10^5” for “10^4”, “The” for “These”, “48” for “20”"}, "[8]": {"test_system": "Clostridium perfringes ATCC 13124", "assay": "microbe, parasite or virus in culture", "details": "anaerobe, ~10^5 organisms per spot, 37° C., ~48 hours", "experimental": "as §1, with “Fast” for “Optical rotations were measured on a Perkin-Elmer Model 241 polarimeter in a 10 cm cell. Fast”\nas §2, with “anaerobic bacteria such as Clostridium,” for “selected aerobic microorganisms,”, “Wilkins-Chalgren” for “brain heart infusion”, “10^5” for “10^4”, “The” for “These”, “48” for “20”"}, "[9]": {"test_system": "Bacteriodes thetaiotaomicron ATCC 29741", "assay": "In vitro antibiotic activity (MIC) against anaerobes, agar dilution, Wilkins-Chalgren agar", "details": "anaerobe, ~10^5 organisms per spot, 37° C., ~48 hours", "experimental": "as §1\nas §2, with “anaerobic bacteria such as Clostridium,” for “selected aerobic microorganisms,”, “Wilkins-Chalgren” for “brain heart infusion”, “10^5” for “10^4”, “The” for “These”, “48” for “20”"}, "[10]": {"test_system": "Bacteroides fragilis ATCC 25285", "assay": "In vitro antibiotic activity (MIC) against anaerobes, agar dilution, Wilkins-Chalgren agar", "details": "ATCC25285, anaerobe, ~10^5 organisms per spot, 37° C., ~48 hours", "experimental": "as §1\nas §2, with “anaerobic bacteria such as Clostridium,” for “selected aerobic microorganisms,”, “Wilkins-Chalgren” for “brain heart infusion”, “10^5” for “10^4”, “The” for “These”, “48” for “20”"}, "bacterial pathogens": {"test_system": "bacterial pathogens", "assay": "In vitro activity against bacterial pathogens (summary in words)", "details": "from Table 2", "experimental": "Optical rotations were measured on a Perkin-Elmer Model 241 polarimeter in a 10 cm cell. Fast atom bombardment mass spectra were measured on a Kratos MS-50 mass spectrometer. Ultraviolet spectra were recorded on a Perkin-Elmer Lambda 3B UV-visible spectrophotometer and infrared spectra on a Nicolet model 60SX FT-IR attached to a Nicolet computer. NMR spectra were acquired on either a General Electric GN500 or GN300 spectrometer. NMR spectral data are reported in Table 1 (following Example 6 below). Rf values reported were acquired on Analtech TLC plates developed with chloroform:methanol (9:1, v:v) and were visualized using ceric sulfate spray reagent. Melting points were determined on a Hoover Unimelt and are reported uncorrected. Minimal inhibitory concentrations were determined by twofold agar dilution. Brain heart infusion agar was used for aerobes and Wilkins-Chalgren agar for anaerobes.\nFor primary screening of compounds of the invention against selected aerobic microorganisms, minimal inhibitory concentrations (MICs) were determined by the following agar dilution method: Series of two-fold dilutions of the test compounds were added to brain heart infusion agar. […] The MICs were determined as the minimal concentration of test compound (in […]) that inhibited visible growth. […]"}, "[11]": {"details": "Enterococcus faecium, ATCC8043, read-out: MIC"}, "[12]": {"details": "Escherichia coli, read-out: MIC"}, "[13]": {"details": "Staphylococcus aureus, ATCC6538P, read-out: MIC"}, "[14]": {"details": "Staphylococcus epidermidis, 3519, read-out: MIC"}, "[15]": {"details": "Streptococcus pyogenes, EES61, read-out: MIC"}, "[16]": {"details": "Clostridioides difficile, 2532, read-out: MIC"}, "[17]": {"details": "Clostridioides difficile, ATCC17857, read-out: MIC"}, "[18]": {"details": "Clostridioides difficile, ATCC9689, read-out: MIC"}, "[19]": {"details": "Clostridium, ATCC13124, read-out: MIC"}}, "note": "Where two headings read alike, the source gives them in different places.", "data": [{"molecule": "4'\",6'\"-didechloro-4'\"-bromotiacumicin B [Ex. 5]", "values": [{"measurement": "MIC", "setting": "[1]", "result": 12.5, "unit": "µg/mL"}, {"measurement": "MIC", "setting": "Escherichia coli JUHL", "result": "> 200", "unit": "µg/mL"}, {"measurement": "MIC", "setting": "[2]", "result": 6.2, "unit": "µg/mL"}, {"measurement": "MIC", "setting": "[3]", "result": 12.5, "unit": "µg/mL"}, {"measurement": "MIC", "setting": "[4]", "result": 25, "unit": "µg/mL"}, {"measurement": "MIC", "setting": "[5]", "result": 0.5, "unit": "µg/mL"}, {"measurement": "MIC", "setting": "[6]", "result": 0.25, "unit": "µg/mL"}, {"measurement": "MIC", "setting": "[7]", "result": 0.12, "unit": "µg/mL"}, {"measurement": "MIC", "setting": "[8]", "result": "<= 0.06 μg/mL"}]}, {"molecule": "4'\",6'\"-didechloro-4'\"-bromotiacumicin C [Ex. 6]", "values": [{"measurement": "MIC", "setting": "[1]", "result": 25, "unit": "µg/mL"}, {"measurement": "MIC", "setting": "Escherichia coli JUHL", "result": "> 200", "unit": "µg/mL"}, {"measurement": "MIC", "setting": "[2]", "result": 50, "unit": "µg/mL"}, {"measurement": "MIC", "setting": "[3]", "result": 50, "unit": "µg/mL"}, {"measurement": "MIC", "setting": "[4]", "result": 50, "unit": "µg/mL"}, {"measurement": "MIC", "setting": "[5]", "result": 2, "unit": "µg/mL"}, {"measurement": "MIC", "setting": "[6]", "result": 1, "unit": "µg/mL"}, {"measurement": "MIC", "setting": "[7]", "result": 0.5, "unit": "µg/mL"}, {"measurement": "MIC", "setting": "[8]", "result": 0.06, "unit": "µg/mL"}]}, {"molecule": "CCc1c(Br)c(O)c(Cl)c(O)c1C(=O)O[C@H]1[C@H](O)[C@H](OC)[C@H](OC/C2=C\\C=C\\C[C@H](O)/C(C)=C/[C@H](CC)[C@@H](O[C@@H]3OC(C)(C)[C@@H](OC(=O)C(C)C)[C@H](O)[C@@H]3O)/C(C)=C/C(C)=C/C[C@@H]([C@@H](C)O)OC2=O)O[C@@H]1C", "note": "[Ex. 3, 6'\"-dechloro-6'\"-bromotiacumicin B]", "values": [{"measurement": "MIC", "setting": "[1]; [11]", "result": 6.2, "unit": "µg/mL"}, {"measurement": "MIC", "setting": "Escherichia coli JUHL; [12]", "result": "> 200", "unit": "µg/mL"}, {"measurement": "MIC", "setting": "[2]; [13]", "result": 6.2, "unit": "µg/mL"}, {"measurement": "MIC", "setting": "[3]; [14]", "result": 6.2, "unit": "µg/mL"}, {"measurement": "MIC", "setting": "[4]; [15]", "result": 6.2, "unit": "µg/mL"}, {"measurement": "MIC", "setting": "[9]", "result": "> 128", "unit": "µg/mL"}, {"measurement": "MIC", "setting": "[10]", "result": "> 128", "unit": "µg/mL"}, {"measurement": "MIC", "setting": "[5]; [16]", "result": 0.06, "unit": "µg/mL"}, {"measurement": "MIC", "setting": "[6]; [17]", "result": 0.06, "unit": "µg/mL"}, {"measurement": "MIC", "setting": "[7]; [18]", "result": 0.06, "unit": "µg/mL"}, {"measurement": "MIC", "setting": "[8]; [19]", "result": 0.03, "unit": "µg/mL"}, {"measurement": "potency among compounds of this invention", "setting": "bacterial pathogens", "result": "the most potent of the compounds of this invention"}, {"measurement": "potency compared with tiacumicin B", "setting": "bacterial pathogens", "result": "quite comparable to tiacumicin B"}]}, {"molecule": "CCc1c(Br)c(O)c(Cl)c(O)c1C(=O)O[C@H]1[C@H](O)[C@H](OC)[C@H](OC/C2=C\\C=C\\C[C@H](O)/C(C)=C/[C@H](CC)[C@@H](O[C@@H]3OC(C)(C)[C@@H](OC(=O)C(C)C)[C@H](O)[C@@H]3O)/C(C)=C/C(C)=C/C[C@@H](C(C)=O)OC2=O)O[C@@H]1C", "note": "[Ex. 4, 6'\"-dechloro-6'\"-bromo-18-ketotiacumicin B]", "values": [{"measurement": "MIC", "setting": "[1]; [11]", "result": 50, "unit": "µg/mL"}, {"measurement": "MIC", "setting": "Escherichia coli JUHL; [12]", "result": "> 200", "unit": "µg/mL"}, {"measurement": "MIC", "setting": "[2]; [13]", "result": 50, "unit": "µg/mL"}, {"measurement": "MIC", "setting": "[3]; [14]", "result": 100, "unit": "µg/mL"}, {"measurement": "MIC", "setting": "[4]; [15]", "result": 50, "unit": "µg/mL"}, {"measurement": "MIC", "setting": "[9]", "result": "> 128", "unit": "µg/mL"}, {"measurement": "MIC", "setting": "[10]", "result": "> 128", "unit": "µg/mL"}, {"measurement": "MIC", "setting": "[5]; [16]", "result": 1, "unit": "µg/mL"}, {"measurement": "MIC", "setting": "[6]; [17]", "result": 0.25, "unit": "µg/mL"}, {"measurement": "MIC", "setting": "[7]; [18]", "result": 0.25, "unit": "µg/mL"}, {"measurement": "MIC", "setting": "[8]; [19]", "result": 0.015, "unit": "µg/mL"}]}]}
